Laboratory results published in ChEMBL document CHEMBL5241097, “Synthetically-tailored and nature-derived dual COX-2/5-LOX inhibitors: Structural aspects and SAR” (Eur J Med Chem, 2021).
Converted amounts (≈) assume the structure as drawn.

What was measured:
Homo sapiens = species: Homo sapiens; assay: Selectivity index, ratio of IC50 for inhibition of human COX1 to IC50 for inhibition of human COX2
DU-145 = assay: Antiproliferative activity against human DU-145 cells assessed as reduction in cell viability incubated for 48 hrs by MTT assay; type: functional, cell-based; details: DU-145, 48 h
[1] = target: T1, Polyunsaturated fatty acid 5-lipoxygenase (Homo sapiens, UniProt P09917); assay: Inhibition of recombinant human 5-LOX using arachidonic acid as substrate preincubated for 10 mins followed by substrate addition and measured after 10 mins by ELISA
T1 sequence (P09917 whole entry): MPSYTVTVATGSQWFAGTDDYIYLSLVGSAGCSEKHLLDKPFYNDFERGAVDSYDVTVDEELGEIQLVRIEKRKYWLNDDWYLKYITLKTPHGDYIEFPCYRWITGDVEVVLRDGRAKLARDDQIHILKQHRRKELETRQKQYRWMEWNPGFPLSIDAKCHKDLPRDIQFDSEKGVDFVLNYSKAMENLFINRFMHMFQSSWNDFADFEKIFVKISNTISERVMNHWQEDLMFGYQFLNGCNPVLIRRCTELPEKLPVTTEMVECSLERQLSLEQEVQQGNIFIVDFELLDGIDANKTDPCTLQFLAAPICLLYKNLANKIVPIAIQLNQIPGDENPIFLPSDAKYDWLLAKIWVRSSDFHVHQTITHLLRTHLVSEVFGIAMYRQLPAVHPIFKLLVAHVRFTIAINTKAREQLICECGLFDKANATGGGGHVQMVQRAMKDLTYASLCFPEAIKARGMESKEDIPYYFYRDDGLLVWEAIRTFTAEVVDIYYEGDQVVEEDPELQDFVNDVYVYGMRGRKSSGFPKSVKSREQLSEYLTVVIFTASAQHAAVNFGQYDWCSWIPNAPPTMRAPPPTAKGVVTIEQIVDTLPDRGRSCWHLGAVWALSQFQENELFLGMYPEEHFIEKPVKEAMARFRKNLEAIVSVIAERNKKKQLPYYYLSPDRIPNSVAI

Rattus norvegicus [2] = assay: Antiinflammatory activity in Wistar rat carragenan-induced paw edema model assessed as reduction in edema thickness at 50 mg/kg, po and measured after 2 hrs; type: functional; parameters: scale not given: the % may be the effect or the level left
[3] = target: T1, Polyunsaturated fatty acid 5-lipoxygenase; assay: Inhibition of 5-LOX (unknown origin) by colorimetric assay
[4] = target: T2, Prostaglandin G/H synthase 2 (Homo sapiens, UniProt P35354); assay: Inhibition of COX-2 (unknown origin) using arachidonic acid as substrate preincubated for 5 mins followed by substrate addition by colorimetric assay
T2 sequence (P35354 whole entry): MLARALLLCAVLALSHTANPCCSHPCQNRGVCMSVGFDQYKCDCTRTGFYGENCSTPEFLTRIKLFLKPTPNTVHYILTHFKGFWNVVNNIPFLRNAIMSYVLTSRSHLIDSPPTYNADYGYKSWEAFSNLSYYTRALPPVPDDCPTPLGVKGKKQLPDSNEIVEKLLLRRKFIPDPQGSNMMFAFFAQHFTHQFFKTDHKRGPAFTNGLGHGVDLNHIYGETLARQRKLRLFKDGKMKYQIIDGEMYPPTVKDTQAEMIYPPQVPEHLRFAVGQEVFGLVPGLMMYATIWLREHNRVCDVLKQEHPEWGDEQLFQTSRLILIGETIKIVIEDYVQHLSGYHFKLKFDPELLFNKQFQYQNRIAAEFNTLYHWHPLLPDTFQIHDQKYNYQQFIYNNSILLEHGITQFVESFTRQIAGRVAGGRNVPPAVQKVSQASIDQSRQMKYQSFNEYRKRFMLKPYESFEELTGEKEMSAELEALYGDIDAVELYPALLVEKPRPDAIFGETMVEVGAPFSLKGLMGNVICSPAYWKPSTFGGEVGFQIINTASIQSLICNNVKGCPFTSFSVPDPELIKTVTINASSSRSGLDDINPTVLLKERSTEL

[5] = Inhibition of soybean 5-LOX using arachidonic acid as substrate preincubated for 5 mins followed by substrate addition and measured after 5 mins by microplate spectrophotometric analysis; parameters: species or system Glycine max
[6] = target: T2, Prostaglandin G/H synthase 2; assay: Inhibition of COX-2 (unknown origin) using arachidonic acid as substrate preincubated for 5 mins followed by substrate addition and measured after 20 mins by colorimetric assay
[7] = target: T2, Prostaglandin G/H synthase 2; assay: Inhibition of recombinant human COX-2 using arachidonic acid as substrate preincubated for 10 mins followed by substrate addition and measured after 2 mins by Ellman's reagent based ELISA
[8] = target: T1, Polyunsaturated fatty acid 5-lipoxygenase; assay: Inhibition of recombinant human 5-LOX using arachidonic acid as substrate incubated for 10 mins by spectrophotometric analysis
[9] = target: T2, Prostaglandin G/H synthase 2; assay: Inhibition of COX-2 (unknown origin)
[10] = target: T1, Polyunsaturated fatty acid 5-lipoxygenase; assay: Inhibition of 5-LOX (unknown origin) by spectrophotometric method
[11] = target: T2, Prostaglandin G/H synthase 2; assay: Inhibition of COX-2 (unknown origin) by 2,7-dichlorofluorescein dye based spectrophotometric method
[12] = Inhibition of soybean 5-LOX using linoleic acid as substrate by spectrophotometric analysis; parameters: species or system Glycine max
[13] = target: T2, Prostaglandin G/H synthase 2; assay: Inhibition of COX-2 (unknown origin) using arachidonic acid as substrate preincubated for 15 mins followed by substrate addition by colorimetric assay
[14] = target: T2, Prostaglandin G/H synthase 2; assay: Inhibition of COX-2 (unknown origin) by colorimetric method
[15] = target: T1, Polyunsaturated fatty acid 5-lipoxygenase; assay: Inhibition of 5-LOX (unknown origin)
Rattus norvegicus [16] = assay: Antiinflammatory activity in po dosed Sprague-Dawley rat assessed as reduction in carragenan-induced paw edema and measured after 4 hrs by vernier caliper method; type: functional; parameters: scale not given: the % may be the effect or the level left
[17] = target: T2, Prostaglandin G/H synthase 2; assay: Inhibition of recombinant human COX-2 using arachidonic acid as substrate by ELISA
[18] = target: T1, Polyunsaturated fatty acid 5-lipoxygenase; assay: Inhibition of 5-LOX (unknown origin) by fluorometric analysis
[19] = target: T3, Prostaglandin G/H synthase 1 (Homo sapiens, UniProt P23219); assay: Inhibition of recombinant human COX-1 using arachidonic acid as substrate by ELISA
[20] = target: T2, Prostaglandin G/H synthase 2; assay: Inhibition of recombinant human COX-2 using arachidonic acid as substrate preincubated for 5 mins followed by substrate addition and measured after 20 mins by ELISA
[21] = target: T2, Prostaglandin G/H synthase 2; assay: Inhibition of recombinant human COX-2 using arachidonic acid as substrate preincubated for 10 mins followed by substrate addition and measured after 2 mins by ELISA
[22] = target: T3, Prostaglandin G/H synthase 1; assay: Inhibition of human COX-1 using arachidonic acid as substrate preincubated for 10 mins followed by substrate addition and measured after 2 mins by ELISA
[23] = target: T1, Polyunsaturated fatty acid 5-lipoxygenase; assay: Inhibition of 5-LOX (unknown origin) using linoleic acid as substrate preincubated for 5 mins followed by substrate addition by spectrophotometric assay
Rattus norvegicus [24] = assay: Antiinflammatory activity in Wistar rat assessed as reduction in carragenan-induced paw edema at 10 mg/kg, po for 7 days followed by carrageenan stimulation and measured upto 6 hrs by vernier caliper method; type: functional; parameters: scale not given: the % may be the effect or the level left; details: time 7 day
[25] = Antioxidant activity assessed as DPPH radical scavenging activity by spectrophotometric analysis; type: functional

T3 sequence (P23219 whole entry): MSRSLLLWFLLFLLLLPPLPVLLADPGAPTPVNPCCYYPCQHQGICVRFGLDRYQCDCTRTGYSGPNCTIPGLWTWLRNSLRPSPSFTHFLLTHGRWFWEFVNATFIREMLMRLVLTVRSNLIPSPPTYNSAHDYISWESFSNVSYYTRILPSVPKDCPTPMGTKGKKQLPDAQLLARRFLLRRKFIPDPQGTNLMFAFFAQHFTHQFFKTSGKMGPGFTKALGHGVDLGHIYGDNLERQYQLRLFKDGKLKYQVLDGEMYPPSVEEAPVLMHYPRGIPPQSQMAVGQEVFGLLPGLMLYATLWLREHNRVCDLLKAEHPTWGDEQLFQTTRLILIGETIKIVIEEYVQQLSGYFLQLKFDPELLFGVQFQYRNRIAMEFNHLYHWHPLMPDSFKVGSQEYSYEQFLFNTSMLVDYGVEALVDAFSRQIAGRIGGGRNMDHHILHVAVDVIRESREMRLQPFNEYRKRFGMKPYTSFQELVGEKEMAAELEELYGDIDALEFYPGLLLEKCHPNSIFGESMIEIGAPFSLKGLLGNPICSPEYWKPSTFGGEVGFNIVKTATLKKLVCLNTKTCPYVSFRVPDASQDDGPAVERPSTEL

Cc1ccc(-c2ncc(Cl)cc2-c2ccc(S(C)(=O)=O)cc2)cn1
Ratio IC50 (Homo sapiens): 91.3

COc1cc([C@@H]2c3cc4c(cc3[C@@H](O[C@@H]3O[C@@H]5CO[C@@H](C)O[C@H]5[C@H](O)[C@H]3O)[C@H]3COC(=O)[C@H]23)OCO4)cc(OC)c1O [ETOPOSIDE]
IC50 (DU-145): 9.8 µM

Oc1cc(O)cc(/C=C/c2ccc(O)c(O)c2)c1 [PICEATANNOL]
IC50 [1]: 0.39 µM

CC1=NN(c2ccccc2C(=O)O)C(=O)/C1=N/Nc1ccc(S(N)(=O)=O)cc1
Activity (Rattus norvegicus [2]): 72.72%
IC50 [3]: 0.52 µM
IC50 [4]: 0.72 µM

CC(=O)OC[C@@H]1O[C@@H](n2cc(CNC(=O)C(=O)c3cn(S(=O)(=O)c4ccc(C)cc4)c4ccccc34)nn2)[C@H](OC(C)=O)[C@@H](OC(C)=O)[C@H]1OC(C)=O
IC50 (DU-145): 18.5 µM
IC50 [5]: 7.46 µM
IC50 [6]: 0.12 µM

CC1=CCCC2C1(C)CCC(C)C2(C)CCC1=CC(=O)OC1O (stereo not given)
IC50 [7]: 10.3 µM
IC50 [8]: 14.4 µM

O=Cc1ccc(O)c(O)c1 [PROTOCATECHUALDEHYDE]
IC50 [9]: 19.7 µM

CCCCC(=O)OCC[C@@H]1CC=C[C@@H]2[C@H]1C(=O)O[C@@]2(C)CO
IC50 [10]: 2580 µM
IC50 [11]: 2380 µM

CCc1ccc(-c2ccc(-n3cc(CNC(=O)C(=O)c4c[nH]c5ccccc45)nn3)cc2)cc1
IC50 (DU-145): 8.17 µM
IC50 [5]: 7.73 µM
IC50 [6]: 0.12 µM

N=C1/C(=N\Nc2ccc(S(N)(=O)=O)cc2)C(N)=NN1c1ccc(S(N)(=O)=O)cc1
IC50 [3]: 2.78 µM
IC50 [4]: 0.92 µM

NC(=O)c1ccc(-c2nc(CSc3nc4ccccc4s3)no2)cc1
IC50 [12]: 6.4 µM
IC50 [13]: 6.8 µM

N#Cc1c(-c2ccc(Cl)cc2)csc1NC(=O)CN1CCOCC1
IC50 [14]: 5.45 µM
Ratio IC50 (Homo sapiens): 8.37
IC50 [15]: 4.33 µM
Activity (Rattus norvegicus [16]): 58.77%

COc1cccc(/C=c2\c(=O)[nH]n3c(=O)c4ccccc4nc23)c1
IC50 [17]: 0.488 µM
IC50 [18]: 0.6 µM
IC50 [19]: 1.48 µM

C=C1C(O)CCC2C1(C)CCC(C)C2(C)CCC1=CC(=O)OC1O (stereo not given)
IC50 [7]: 12.8 µM
IC50 [8]: 16.5 µM

CON(C)C(=O)c1ccc(-c2nc(CSc3nc4ccccc4s3)no2)cc1
IC50 [12]: 5.1 µM
IC50 [13]: 7.6 µM

Cc1ccc(-c2cc(C(F)(F)F)nn2-c2ccc(S(N)(=O)=O)cc2)cc1 [CELECOXIB]
Activity (Rattus norvegicus [2]): 15.7%
Activity (Rattus norvegicus [16]): 73.56%

COc1cc(/C=C/c2ccc(O)cc2)cc(OC)c1 [PTEROSTILBENE]
IC50 [20]: 5.99 µM
IC50 [1]: 1.63 µM

C=C1CCCC2C1(C)CCC(C)C2(C)CCC1=CC(=O)OC1O (stereo not given)
IC50 [7]: 8.49 µM
IC50 [8]: 12.7 µM

COc1cc(O)cc(/C=C/c2ccc(O)cc2)c1
IC50 [20]: 0.25 µM
IC50 [1]: 4.01 µM

CCc1cc(OC)c(OC)c(OC)c1
Ratio IC50 (Homo sapiens): 668
IC50 [21]: 0.18 µM

O=C(c1sc(N(c2ccccc2)c2ccccc2)nc1-c1ccc([N+](=O)[O-])cc1)c1cccc2ccccc12
Ratio IC50 (Homo sapiens): 115
IC50 [22]: 8.06 µM
IC50 [23]: 0.29 µM
IC50 [21]: 0.07 µM
Activity (Rattus norvegicus [24]): 63%

CC[C@H](CO)[C@@](C)(O)C/C=C/C(C)(C)OC(=O)C[C@]1(C)C=CC[C@@H](C)[C@@]12C=CC(C)(CC)O2 (stereo not given in full)
IC50 [25]: 540 µg/mL (≈ 1170 µM)
IC50 [10]: 1620 µM
IC50 [11]: 1400 µM
